One series concerns THP-1 cells. As to the kind of experiment: enhancing effect for differentiation-induction from human monocyte to macrophage (THP-1/Mφ system, MTT readout). It is filed as cell-based. Also noted: key: ++: enhanced 100% or more; +: enhanced 50-100%; ±: enhanced 25-50%; −: no activity; /: expressed cytoxicity; NT: not tested or under assessment. The settings on record: in comparison with enhancing action for differentiation-induction of EM 100 μM. As to the method: In order to confirm enhancing effect for differentiation-induction of the compounds of the present invention, the enhancing effect for differentiation-induction from human monocyte to macrophage was assayed. Method is performed as follows. THP-1 cells were collected from cultured liquid by centrifugation, adjusted the concentration to 2×10^5 cells/ml using medium (RPMI 1640) and distributed into the 48-well plate at 500 μl/well. PMA solution 10 μl and sample solution 5 μl were added in each well, stirred with mild shaking and incubated at 37° C. for 72-96 hours under 5% CO2. Further MTT 0.5 mg/ml solution was added at 300 μl/well, and incubated at 37° C. for 3 hours under 5% CO2. Supernatant solution was suctioned using the injection tube, added DMSO 500 μl using automatic continuous injector to dissolve formazan completely and transferred each 100 μl to the 96-well plate. The optical absorption was measured using the plate-reader.

Series [1] has as its system bleomycin-induced pulmonary fibrosis. As to the kind of experiment: suppressive effect against bleomycin-induced pulmonary fibrosis (hydroxyproline levels in tissue). It is filed as in vivo, mice. The settings on record: for Hydroxyproline levels in tissue, Assay result / Hydroxyproline levels in tissue, Weight conversion: day-28, individual mice.
The test system of series [2] is influenza virus-induced pneumonia. As to the kind of experiment: suppressive effect against pneumonia caused by influenza viral infection (mice influenza pneumonia model). The series is classed as in vivo. As to the method: Next, the suppressive effect of the compound EM703 against pneumonia caused by influenza viral infection was examined.
Sample was dissolved in physiological saline containing 1% DMSO and amount corresponding to oral dosage of the small administration for long-term therapy was administered from day-1 to day-6 of the infection to mice influenza pneumonia model (0.3 mg and 0.03 mg/mice), once a day, intraperitoneally. Results were compared with control group which was given only solvent.
In this system, mice developed pneumonia and almost died about 20 days after infection. […] This indicates suppressive effect against pneumonia and result to cure pneumonia.

[3] abbreviates: BLM + EM703 group: BLM 100 mg/kg tail vein day-0, EM703 50 mg/kg/day orally for 17 days.
Where [4] appears, read: EM703 group (no BLM), 50 mg/kg/day orally, 50 mg/kg/day.
[5] abbreviates: BLM group: BLM 100 mg/kg tail vein day-0 only.

“And” between values parts separate entries of the source, which are not always exact repeats. Identical values can stand only once.

Consider `CC[C@H]1O[C@]2(O)O[C@H]([C@@H](C)C3O[C@@](C)(C[C@@H]3C)[C@H](O[C@@H]3OC(C)CC(NC)C3O)[C@@H](C)[C@H](O[C@H]3CC(C)(OC)[C@@H](O)C(C)O3)[C@H]2C)[C@]1(C)O` (stereo partly drawn) [EM703, de(3′-N-methyl)-8,9-anhydro-pseudoerythromycin A 6,9-hemiketal], for which, in the series on THP-1 cells, the “activities in THP-1/Mφ system, Treated conc. 0.3 μM” value (shortened to “activities … Treated conc. 0.3 μM”) was “+ (enhanced 50-100%)”; the “activities in THP-1/Mφ system, Treated conc. 1 μM” value (“activities … Treated conc. 1 μM” for short) is on record as “+ (enhanced 50-100%)”; the “activities in THP-1/Mφ system, Treated conc. 3 μM” value (shortened to “activities … Treated conc. 3 μM”) was “+ (enhanced 50-100%)”; the “activities in THP-1/Mφ system, Treated conc. 10 μM” value (“activities … Treated conc. 10 μM” for short) is on record as “+ (enhanced 50-100%)”. In series [1] (setting [3]), the “Hydroxyproline levels in tissue, Assay result” value is 583 µmol/L and 495 µmol/L and 437 µmol/L and 314 µmol/L; the “Hydroxyproline levels in tissue, Weight conversion” value is 5.2 µmol/g and 4.5 µmol/g and 4.4 µmol/g and 2.9 µmol/g. Moreover, the “Hydroxyproline level, an index for lung injury, BLM+EM703 group versus BLM administered group” value in series [1] (EM703 50 mg/kg/day orally, BLM 100 mg/kg) is reported as “reduced”. In addition, in series [1] (setting [4]), the “Hydroxyproline levels in tissue, Assay result” value was 552 µmol/L and 489 µmol/L and 591 µmol/L; the “Hydroxyproline levels in tissue, Weight conversion” value is 5.0 µmol/g and 4.6 µmol/g and 5.4 µmol/g. The molecule further showed a survival of mice in series [2] (EM703 0.3 mg/mice intraperitoneally once a day, day-1 to day-6 of infection, control mice almost died about 20 days after infection, FIG. 2) of 40%. Also, in series [2] (administration of EM703 intraperitoneally, control showed significant decrease of body weight, FIG. 3), the body weight result was “increase body weight from day-10”. Further, the “suppressive effect against influenza virus-induced pneumonia” value in series [2] (mice influenza pneumonia model, 0.3 mg/mice) is “cured pneumonia”.

As for `CC[C@H]1O[C@]2(O)O[C@H]([C@@H](C)C3O[C@@](C)(C[C@@H]3C)[C@H](O[C@@H]3OC(C)CC(N4CCCCC4)C3O)[C@@H](C)[C@H](O[C@H]3CC(C)(OC)[C@@H](O)C(C)O3)[C@H]2C)[C@]1(C)O` (stereo partly drawn) [EM734, de(3′-dimethylamino)-3′-piperidino-8,9-anhydro-pseudoerythromycin A 6,9-hemiketal], the melting point – broadly, the temperature of the solid-liquid transition – lay in the range of 128 to 130 °C. Moreover, in the series on THP-1 cells, the “activities … Treated conc. 0.3 μM” value is recorded as “−”; the “activities … Treated conc. 1 μM” value is recorded as “± (enhanced 25-50%)”; the “activities … Treated conc. 3 μM” value was “+ (enhanced 50-100%)”; the “activities … Treated conc. 10 μM” value is “+ (enhanced 50-100%)”.

As to `CCCCCCNC1CC(C)O[C@@H](O[C@@H]2[C@@H](C)[C@H](O[C@H]3CC(C)(OC)[C@@H](O)C(C)O3)[C@@H](C)[C@@]3(O)O[C@H]([C@@H](C)C4O[C@@]2(C)C[C@@H]4C)[C@](C)(O)[C@@H](CC)O3)C1O` (stereo partly drawn) [EM738, bis-de(3′-N-methyl)-3′-N-hexyl-8,9-anhydro-pseudoerythromycin A 6,9-hemiketal], the melting point fell in the range of 115 to 118 °C. In addition, in the series on THP-1 cells, the “activities … Treated conc. 0.3 μM” value is recorded as “−”; the “activities … Treated conc. 1 μM” value is given as “± (enhanced 25-50%)”; the “activities … Treated conc. 3 μM” value is “+ (enhanced 50-100%)”.

Molecule `CCCCCCN(CCCCCC)C1CC(C)O[C@@H](O[C@@H]2[C@@H](C)[C@H](O[C@H]3CC(C)(OC)[C@@H](O)C(C)O3)[C@@H](C)[C@@]3(O)O[C@H]([C@@H](C)C4O[C@@]2(C)C[C@@H]4C)[C@](C)(O)[C@@H](CC)O3)C1O` (stereo partly drawn) [EM739, bis-de(3′-N-methyl)-3′,3′-N,N-dihexyl-8,9-anhydro-pseudoerythromycin A 6,9-hemiketal] returned a melting point of 158 to 160 °C. In the series on THP-1 cells, the “activities … Treated conc. 0.3 μM” value is “−”; the “activities … Treated conc. 1 μM” value was “± (enhanced 25-50%)”; the “activities … Treated conc. 3 μM” value is reported as “+ (enhanced 50-100%)”; the “activities … Treated conc. 10 μM” value is on record as “+ (enhanced 50-100%)”.

As to `CC[C@@H](O)[C@@](C)(O)[C@@H]1OC(=O)[C@H](C)[C@@H](O[C@H]2C[C@@](C)(OC)[C@@H](O)[C@H](C)O2)[C@H](C)[C@@H](O[C@@H]2O[C@H](C)C[C@H](N3CCOCC3)[C@H]2O)[C@@]2(C)CC(C)=C(O2)[C@@H]1C` [EM747, de(3′-dimethylamino)-3′-morpholino-8,9-anhydro-pseudoerythromycin A 6,9-hemiketal], in the series with THP-1 cells, the “activities … Treated conc. 3 μM” value is recorded as “−”; the “activities … Treated conc. 10 μM” value is given as “± (enhanced 25-50%)”; the “activities in THP-1/Mφ system, Treated conc. 30 μM” value (shortened to “activities … Treated conc. 30 μM”) was “++ (enhanced 100% or more)”.

The molecule `CC[C@H]1O[C@]2(O)O[C@H]([C@@H](C)C3O[C@@](C)(C[C@@H]3C)[C@H](O[C@@H]3OC(C)CC(N4CCCCCC4)C3O)[C@@H](C)[C@H](O[C@H]3CC(C)(OC)[C@@H](O)C(C)O3)[C@H]2C)[C@]1(C)O` (stereo partly drawn) [EM748, de(3′-dimethylamino)-3′-[hexahydro-1(1H)-azepinyl]-8,9-anhydro-pseudoerythromycin A 6,9-hemiketal] showed a melting point of 120 to 123 °C. Also, in the series with THP-1 cells, the “activities … Treated conc. 0.3 μM” value is reported as “−”; the “activities … Treated conc. 1 μM” value is reported as “± (enhanced 25-50%)”; the “activities … Treated conc. 3 μM” value is reported as “++ (enhanced 100% or more)”; the “activities … Treated conc. 10 μM” value is given as “++ (enhanced 100% or more)”.

`CCC(O)C(C)(O)C1OC(=O)C(C)C(OC2CC(C)(OC)C(O)C(C)O2)C(C)C(OC2OC(C)CC(N(CCCCCCCCCCBr)CCCCCCCCCCBr)C2O)C2(C)CC(C)=C(O2)C1C` (stereo not drawn) [EM749, bis-de(3′-N-methyl)-3′,3′-N,N-di-(10-bromo-1-decanyl)-8,9-anhydro-pseudoerythromycin A 6,9-hemiketal]: in the series with THP-1 cells, the “activities … Treated conc. 1 μM” value is listed as “± (enhanced 25-50%)”; the “activities … Treated conc. 3 μM” value is “+ (enhanced 50-100%)”; the “activities … Treated conc. 10 μM” value is on record as “+ (enhanced 50-100%)”; the “activities … Treated conc. 30 μM” value is “/insolule”.

Take `COC1(C)CC(OC2C(C)C(=O)OC(C(C)N)C(C)C3=C(C)CC(C)(O3)C(OC3OC(C)CC(N(C)C)C3O)C2C)OC(C)C1O` (stereo not drawn) [EM750, de(12-hydroxy)-de[12-(hydroxypropyl)]-12-amino-8,9-anhydro-pseudoerythromycin A 6,9-hemiketal]: in the series with THP-1 cells, the “activities … Treated conc. 1 μM” value is reported as “−”; the “activities … Treated conc. 3 μM” value is on record as “−”; the “activities … Treated conc. 10 μM” value is “± (enhanced 25-50%)”.

As to `CCC(O)C(C)(O)C1OC(=O)C(C)C(O)C(C)C(OC2OC(C)CC(NC)C2O)C2(C)CC(C)=C(O2)C1C` (stereo not drawn) [EM754, de(3-O-cladinosyl) -de(3′-N-methyl) -8,9-anhydrous-pseudoerythromycin A 6,9-hemiketal], in the series with THP-1 cells, the “activities … Treated conc. 1 μM” value was “−”; the “activities … Treated conc. 3 μM” value is “−”; the “activities … Treated conc. 30 μM” value is given as “+ (enhanced 50-100%)”.

`CC[C@H]1OC(=O)[C@H](C)[C@@H](O[C@H]2C[C@@](C)(OC)[C@@H](O)[C@H](C)O2)[C@H](C)[C@@H](O[C@@H]2O[C@H](C)C[C@H](N(C)C)[C@H]2O)[C@](C)(O)C[C@@H](C)C(=NO)[C@H](C)[C@@H](O)[C@]1(C)O` [EM oxim, reference compound]: in the series on THP-1 cells, the “activities … Treated conc. 1 μM” value was “−”; the “activities … Treated conc. 3 μM” value is “± (enhanced 25-50%)”; the “activities … Treated conc. 10 μM” value is “± (enhanced 25-50%)”; the “activities … Treated conc. 30 μM” value was “++ (enhanced 100% or more)”.

For `CC[C@H]1OC(=O)[C@H](C)[C@@H](O[C@H]2C[C@@](C)(OC)[C@@H](O)[C@H](C)O2)[C@H](C)[C@@H](O[C@@H]2O[C@H](C)C[C@H](N(C)C)[C@H]2O)[C@](C)(O)C[C@@H](C)C(=O)[C@H](C)[C@@H](O)[C@]1(C)O` [EM, Erythromycin], in the series on THP-1 cells, the “activities … Treated conc. 1 μM” value is “−”; the “activities … Treated conc. 3 μM” value is “± (enhanced 25-50%)”; the “activities … Treated conc. 10 μM” value was “+ (enhanced 50-100%)”; the “activities … Treated conc. 30 μM” value is listed as “+ (enhanced 50-100%)”.

As for bleomycin [BLM, reference compound], in series [1] (setting [5]), the “Hydroxyproline levels in tissue, Assay result” value was 785 µmol/L and 733 µmol/L; the “Hydroxyproline levels in tissue, Weight conversion” value is 7.1 µmol/g and 6.4 µmol/g.

Source of the values: patent US6734292B1, “Pseudoerythromycin derivatives” (The Kitasato Institute, priority 2002, dated 2004).
